Test results published in patent US20170313674A1, “BENZYLHYDROXIDE DERIVATIVES, PREPARATION THEREOF AND THERAPEUTIC USE THEREOF” (SANOFI, priority 2014, published 2017).
Like-named read-outs stand apart in the source and are kept apart here.

Tests used:
HIF-1a = assay: Western blot model: HIF1-a stabilization in Hep3b cells under hypoxia; format: cell-based; details: hypoxia 1% O2, 6 hours; for Western Blot (range of decrease of HIF1-a stabilization): class symbol
Method: Since it was sought to determine the efficacy of the compounds to inhibit HIF1a stabilization under hypoxia, the compounds according to the invention underwent biochemical studies in order to determine their capacity to decrease HIF stabilization in Hep3b cells under hypoxia (western blot model).
Hep3B cells are seeded at a rate of 300000 cells per well in 6-wells culture plate in 2 ml of MEM supplemented with glutamin (2 mM) and 10% FCS (foetal calf serum) and incubated at 37° C. in the presence of 5% CO2. The next day, the cells are placed in contact with the compound and an incubation under hypoxia at 1% O2 is carried out at 37° C. in 95% humidity and 5% CO2 in a sealed anaerobic workstation (Hypoxystation H35-Don Whitley—AES Chemunex) during 6 hours.
Cells were washed (PBS) and lysed in SDS sample buffer. Proteins (25 μg) were separated on 4-12% Bis-Tris gels and transferred onto polyvinylidene difluoride membranes (Millipore). Membranes were blotted with a mouse monoclonal antibody to HIF-1a (BD transduction) and a mouse monoclonal anti-βactin (Sigma). Immunoreactive bands were detected with a horse radish peroxydase (HRP) anti-mouse antibody (Sigma) by enhanced chemiluminescence (Promega).
The inhibitory activity of the compounds for their capacity to decrease HIF1-a stabilization in Hep3b under hypoxia is expressed as range of percentage relative to control with: […]

[1] = tested on: mitochondrial ATP production on non-small cell lung carcinoma cell lines NCI-H460; assay: Mitochondrial ATP analysis (Cell Titer Glo) in NCI-H460 cells; format: cell-based; details: 1-hour incubation, with sodium iodoacetate (100 μM), concentration inhibiting 50% of mitochondrial ATP production, read-out: IC50 (mito ATP)
Method: In order to evaluate the inhibitory activity of the all compounds, an in vitro assay was developed which read out is directly linked to mitochondrial complex 1 inhibition. Since mitochondrial complex 1 contributes to the formation of membrane potential coupled to the mitochondrial ATP synthesis, complex 1 inhibition directly leads in cells to the inhibition of mitochondrial ATP production. Cellular ATP contents were measured in presence of either glycolysis inhibitor (sodium iodocetate) and/or mitochondrial inhibitors (F0F1-ATPase inhibitor: oligomycin or mitochondrial uncoupler: FCCP) to determine the ATP production part relying either on glycolytic or on mitochondrial metabolism.
Mitochondrial ATP Analysis
The compounds of the invention were evaluated for their ability to inhibit mitochondrial
ATP was measured using the Promega Cell Titer Glo kit and protocol. In summary, 1,000 cells were plated in 40 μL in a 384 well plate. 24 hours later, medium was replaced by 20 μl culture medium in presence of compounds: cells were treated in replicates of five with control (PBS), oligomycin A (10 μg/ml), FCCP (30 μM), or the compounds of the invention in dose effect both alone or in combination with sodium iodoacetate (100 μM). Following a 1-hour incubation, 20 μL of CellTtiter-glo™ reaction mix were added to each well for a final volume of 40 μL. Plates were then analyzed for luminescence with a Perkin Elmer EnVision. By comparing the different conditions, global ATP and percentages of both glycolytic and mitochondrial ATP were determined.
The mitochondrial ATP production was calculated as the remaining ATP under iodoacetate treatment minus basal ATP (ATP content under iodoacetate and oligomycin treatment). Inhibitory activity of the compounds on mitochondrial ATP in NCI-H460 cells is expressed as the concentration needed to inhibit 50% of mitochondrial ATP production (IC50, M).

Compound	Western Blot (decrease of HIF1-a stabilization, percentage relative to control) (HIF-1a) [%]	Western Blot (range of decrease of HIF1-a stabilization) (HIF-1a)	IC50 [1] [nM]	IC50 ([1]; Homo sapiens, NCI-H460, 1 h) [nM]
COc1ccc(C(O)COc2ccc(-c3csc(-c4ccc(OCC(O)c5ccc(OC)c(OC)c5)cc4)n3)cc2)cc1OC (single isomer, unassigned) [Compound I-25, 1-(3,4-dimethoxyphenyl)-2-[4-[2-[4-[2-(3,4-dimethoxyphenyl)-2-hydroxy-ethoxy]phenyl]thiazol-4-yl]phenoxy]ethanol]	41	* (* represents a decrease of HIF-a stabilization between 30 to 50%)	195	–
COc1ccc(C(O)C(C)Oc2ccc(-c3csc(-c4ccc(OC(C)C(O)c5ccc(OC)c(OC)c5)cc4)n3)cc2)cc1OC (single isomer, unassigned) [Compound I-29, 1-(3,4-dimethoxyphenyl)-2-[4-[2-[4-[2-(3,4-dimethoxyphenyl)-2-hydroxy-1-methyl-ethoxy]phenyl]thiazol-4-yl]phenoxy]propan-1-ol]	67	** (** represents a decrease of HIF-a stabilization between 50 to 70%)	159	–
COc1ccc(C(O)C(C)Oc2ccc(-c3csc(-c4ccc(OC(C)C(O)c5ccc(OC)c(OC)c5)cc4)n3)cc2)cc1OC (single isomer, unassigned) [Compound I-30, 1-(3,4-dimethoxyphenyl)-2-[4-[2-[4-[2-(3,4-dimethoxyphenyl)-2-hydroxy-1-methyl-ethoxy]phenyl]thiazol-4-yl]phenoxy]propan-1-ol]	56	** (** represents a decrease of HIF-a stabilization between 50 to 70%)	167	–
COc1ccc(C(O)C(C)Oc2ccc(-c3csc(-c4ccc(OC(C)C(O)c5ccc(OC)c(OC)c5)cc4)n3)cc2)cc1OC (single isomer, unassigned) [Compound I-31, 1-(3,4-dimethoxyphenyl)-2-[4-[2-[4-[2-(3,4-dimethoxyphenyl)-2-hydroxy-1-methyl-ethoxy]phenyl]thiazol-4-yl]phenoxy]propan-1-ol]	64	** (** represents a decrease of HIF-a stabilization between 50 to 70%)	300	–
COc1ccc(C(O)C(C)Oc2ccc(-c3csc(-c4ccc(OC(C)C(O)c5ccc(OC)c(OC)c5)cc4)n3)cc2)cc1OC (single isomer, unassigned) [Compound I-32, 1-(3,4-dimethoxyphenyl)-2-[4-[2-[4-[2-(3,4-dimethoxyphenyl)-2-hydroxy-1-methyl-ethoxy]phenyl]thiazol-4-yl]phenoxy]propan-1-ol]	45	* (* represents a decrease of HIF-a stabilization between 30 to 50%)	47.6	–
COc1ccc(C(O)C(C)Oc2ccc(-c3csc(-c4ccc(OC(C)C(O)c5ccc(OC)c(OC)c5)cc4)n3)cc2)cc1OC (single isomer, unassigned) [Compound I-33, 1-(3,4-dimethoxyphenyl)-2-[4-[2-[4-[2-(3,4-dimethoxyphenyl)-2-hydroxy-1-methyl-ethoxy]phenyl]thiazol-4-yl]phenoxy]propan-1-ol]	52	* (* represents a decrease of HIF-a stabilization between 30 to 50%)	30.1	–
COc1ccc(C(O)C(C)(C)Oc2ccc(-c3noc(-c4ccc(OC(C)(C)C(O)c5ccc(OC)c(OC)c5)cc4)n3)cc2)cc1OC (single isomer, unassigned) [Compound I-37, 1-(3,4-dimethoxyphenyl)-2-[4-[5-[4-[2-(3,4-dimethoxyphenyl)-2-hydroxy-1,1-dimethyl-ethoxy]phenyl]-1,2,4-oxadiazol-3-yl]phenoxy]-2-methyl-propan-1-ol]	74	*** (*** represents a decrease of HIF-a stabilization higher than 70%)	–	94.3
COc1ccc(C(O)C(C)(C)Oc2ccc(-c3nsc(-c4ccc(OC(C)(C)C(O)c5ccc(OC)c(OC)c5)cc4)n3)cc2)cc1OC (single isomer, unassigned) [Compound I-43, 1-(3,4-dimethoxyphenyl)-2-[4-[5-[4-[2-(3,4-dimethoxyphenyl)-2-hydroxy-1,1-dimethyl-ethoxy]phenyl]-1,2,4-thiadiazol-3-yl]phenoxy]-2-methyl-propan-1-ol]	32	* (* represents a decrease of HIF-a stabilization between 30 to 50%)	–	37
COc1ccc(C(O)C(C)(C)Oc2ccc(-c3nsc(-c4ccc(OC(C)(C)C(O)c5ccc(OC)c(OC)c5)cc4)n3)cc2)cc1OC (single isomer, unassigned) [Compound I-44, 1-(3,4-dimethoxyphenyl)-2-[4-[5-[4-[2-(3,4-dimethoxyphenyl)-2-hydroxy-1,1-dimethyl-ethoxy]phenyl]-1,2,4-thiadiazol-3-yl]phenoxy]-2-methyl-propan-1-ol]	45	* (* represents a decrease of HIF-a stabilization between 30 to 50%)	54.4	–
COc1ccc(C(O)COc2ccc(-c3noc(-c4ccc(OCC(O)c5ccc(OC)c(OC)c5)cc4)n3)cc2)cc1OC (single isomer, unassigned) [Compound I-47, 1-(3,4-dimethoxyphenyl)-2-[4-[5-[4-[2-(3,4-dimethoxyphenyl)-2-hydroxy-ethoxy]phenyl]-1,2,4-oxadiazol-3-yl]phenoxy]ethanol]	51	** (** represents a decrease of HIF-a stabilization between 50 to 70%)	–	> 10000
COc1ccc(C(O)COc2ccc(-c3noc(-c4ccc(OCC(O)c5ccc(OC)c(OC)c5)cc4)n3)cc2)cc1OC (single isomer, unassigned) [Compound I-48, 1-(3,4-dimethoxyphenyl)-2-[4-[5-[4-[2-(3,4-dimethoxyphenyl)-2-hydroxy-ethoxy]phenyl]-1,2,4-oxadiazol-3-yl]phenoxy]ethanol]	87	*** (*** represents a decrease of HIF-a stabilization higher than 70%)	> 10000	–
COc1ccc(C(O)C(C)(C)Oc2ccc(-c3c[nH]c(-c4ccc(OC(C)(C)C(O)c5ccc(OC)c(OC)c5)cc4)n3)cc2)cc1OC (single isomer, unassigned) [Compound I-55, 1-(3,4-dimethoxyphenyl)-2-[4-[2-[4-[2-(3,4-dimethoxyphenyl)-2-hydroxy-1,1-dimethyl-ethoxy]phenyl]-1H-imidazol-4-yl]phenoxy]-2-methyl-propan-1-ol]	62	** (** represents a decrease of HIF-a stabilization between 50 to 70%)	–	435
